Source: article PMC10244445, “Molecular basis for the recognition of 24-(S)-hydroxycholesterol by integrin αvβ3” (Scientific Reports, 2023)
Like-named read-outs stand apart in the source and are kept apart here.

Biological target: T1, integrin αvβ3 (Homo sapiens, UniProt P05106+P06756)
T1 construct: gene ITGAV; purified human αvβ3 Integrin; with integrin αv subunit (ITGAV, P06756)
Experiment: SPR (Biacore S200, integrin immobilized on CM5 chip, steady-state model)
Type: binding

T1 sequence (P06756 31-889): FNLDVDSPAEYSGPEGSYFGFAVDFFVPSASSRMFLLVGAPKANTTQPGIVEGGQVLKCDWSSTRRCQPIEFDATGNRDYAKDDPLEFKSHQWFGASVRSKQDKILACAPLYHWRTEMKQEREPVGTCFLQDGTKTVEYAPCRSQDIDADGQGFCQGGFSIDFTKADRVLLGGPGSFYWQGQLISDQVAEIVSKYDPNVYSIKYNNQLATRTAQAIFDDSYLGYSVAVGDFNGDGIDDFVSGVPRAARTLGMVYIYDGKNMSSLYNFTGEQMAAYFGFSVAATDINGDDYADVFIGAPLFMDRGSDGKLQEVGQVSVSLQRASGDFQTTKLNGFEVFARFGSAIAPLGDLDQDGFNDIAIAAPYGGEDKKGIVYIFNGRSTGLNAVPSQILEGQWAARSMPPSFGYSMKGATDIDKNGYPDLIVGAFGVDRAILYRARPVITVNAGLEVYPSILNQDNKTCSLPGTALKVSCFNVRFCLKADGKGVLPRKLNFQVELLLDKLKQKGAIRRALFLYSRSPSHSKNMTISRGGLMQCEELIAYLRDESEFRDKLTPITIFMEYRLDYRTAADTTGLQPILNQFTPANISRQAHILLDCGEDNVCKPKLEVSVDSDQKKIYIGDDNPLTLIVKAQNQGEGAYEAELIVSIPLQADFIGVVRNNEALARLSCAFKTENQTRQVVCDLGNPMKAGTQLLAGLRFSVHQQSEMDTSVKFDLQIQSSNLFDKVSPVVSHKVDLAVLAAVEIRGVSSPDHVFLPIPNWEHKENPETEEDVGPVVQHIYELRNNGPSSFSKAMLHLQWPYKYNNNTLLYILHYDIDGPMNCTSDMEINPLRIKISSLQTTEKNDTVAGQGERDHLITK
T1 sequence (P06756 891-1048): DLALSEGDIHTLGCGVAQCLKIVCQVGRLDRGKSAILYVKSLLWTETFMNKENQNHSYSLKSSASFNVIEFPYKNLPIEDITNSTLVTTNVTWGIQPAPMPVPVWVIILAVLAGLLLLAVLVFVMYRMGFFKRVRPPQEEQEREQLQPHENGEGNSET
T1 sequence (P05106 27-788): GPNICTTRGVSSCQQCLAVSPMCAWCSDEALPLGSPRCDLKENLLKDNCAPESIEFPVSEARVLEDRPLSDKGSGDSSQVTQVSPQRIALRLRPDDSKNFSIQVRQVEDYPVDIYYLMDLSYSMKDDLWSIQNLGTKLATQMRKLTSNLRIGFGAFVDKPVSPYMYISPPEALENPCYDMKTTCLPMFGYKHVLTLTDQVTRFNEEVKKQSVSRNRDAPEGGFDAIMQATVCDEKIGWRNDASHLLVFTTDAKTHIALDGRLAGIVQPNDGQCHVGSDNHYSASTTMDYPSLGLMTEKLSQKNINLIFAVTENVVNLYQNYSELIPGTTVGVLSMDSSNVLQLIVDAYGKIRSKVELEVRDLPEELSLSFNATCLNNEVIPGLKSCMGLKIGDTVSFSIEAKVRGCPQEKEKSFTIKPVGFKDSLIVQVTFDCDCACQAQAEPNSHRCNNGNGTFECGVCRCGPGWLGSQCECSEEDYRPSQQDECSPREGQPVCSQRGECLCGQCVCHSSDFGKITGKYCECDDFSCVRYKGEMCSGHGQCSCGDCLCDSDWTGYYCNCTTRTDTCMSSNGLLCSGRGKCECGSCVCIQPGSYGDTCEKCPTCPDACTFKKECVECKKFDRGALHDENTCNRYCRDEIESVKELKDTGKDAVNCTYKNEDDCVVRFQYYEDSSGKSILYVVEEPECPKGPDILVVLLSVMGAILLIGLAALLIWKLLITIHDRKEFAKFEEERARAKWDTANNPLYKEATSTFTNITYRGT

| Kd (read-out: Kd) | Compound | Kd |
| --- | --- | --- |
| – | CC(C)[C@@H](O)CC[C@@H](C)[C@H]1CC[C@H]2[C@@H]3CC=C4C[C@@H](O)CC[C@]4(C)[C@H]3CC[C@]12C [24HC, 24-(S)-hydroxycholesterol] | 151 nM |
| 56.6 nM | C[C@H](CCCC(C)(C)O)[C@H]1CC[C@H]2[C@@H]3CC=C4C[C@@H](O)CC[C@]4(C)[C@H]3CC[C@]12C [25HC, 25-hydroxycholesterol] | – |
